From US9422263B2, “Fluoro-substituted 3,5-dicyano-4-(1H-indazol-5-yl)-2,6-dimethyl-1,4-dihydropyridine derivatives and methods of use thereof” (BAYER PHARMA AKTIENGESELLSCHAFT, priority 2009, dated 2016)

What was measured:
[1] = target: Recombinant human c-Met protein (Homo sapiens (Human), UniProt P08581); test: c-Met receptor tyrosine kinase activity assay (NADH read-out); format: biochemical; conditions: ATP 30 μM, c-Met 30 nM
Experimental: c-Met Receptor Tyrosine Kinase Activity Assay (NADH Read-Out):
Recombinant human c-Met protein (Invitrogen, Carlsbad, Calif., USA) is used. As substrate for the kinase reaction the peptide KKKSPGEYVNIEFG (JPT, Germany) is used. For the assay, 1 μL of a 51-fold concentrated solution of the test compound in DMSO is pipetted into a white 384-well microtiter plate (Greiner Bio-One, Frickenhausen, Germany). 25 μL of a solution of c-Met (final concentration 30 nM) and pyruvate kinase/lactate dehydrogenase (Roche Diagnostics, Mannheim, Germany; final concentration 8 mg/L) in assay buffer [3-(N-morpholino)propanesulfonic acid (MOPS), 50 mM, pH 7; MgCl2, 10 mM; bovine serum albumin (BSA), 0.01%; Triton X 100, 0.01%; DTT, 2 mM] are added, and the mixture is incubated for 5 min at room temperature. Then, the kinase reaction is started by the addition of 25 μL of a solution of adenosine triphosphate (ATP, final concentration 30 μM), substrate (final concentration 100 μM), nicotinamide adenine dinucleo-tide (NADH, final concentration 50 μM) and dithiothreitol (DTT, final concentration 2 mM) in assay buffer, and the resulting mixture is incubated for a reaction time of 100 min at 32° C.
Subsequently, the amount of phosphorylated substrate is evaluated by measurement of the decrease of NADH fluorescence. Therefore, the fluorescence emissions at 465 nm after excitation at 340 nm is measured in a fluorescence reader, e.g. Tecan Ultra (Tecan, Männedorf, Switzerland). The data are normalised (enzyme reaction without inhibitor=0% inhibition; all other assay components but no enzyme=100% inhibition).

[2] = Pharmacokinetics after intravenous administration of test compounds; format: in vivo, rat; conditions: for in vivo PK, rat i.v. CLblood: male Wistar rats, total blood clearance; for in vivo PK, rat i.v. Fmax, calc: Fmax,calc=[1−CLblood/Qh]*100, Qh 4.2 L per h per kg
Experimental: Pharmacokinetics after Intravenous Administration of Test Compounds: Male Wistar rats (Harlan Laboratories) are anesthetized and a catheter is inserted into the jugular vein of the rat. The next day, a defined dose of the test compound is administered as solution by injection into the tail vein. Blood samples are collected through the jugular catheter during the next 24 h (8-11 time points). Blood is centrifuged in heparin-tubes, and each plasma sample is treated with acetonitrile for protein precipitation. After centrifugation, the test compound in the supernatant is quantified using an LC-MS/MS method. The determined plasma concentrations are used for the calculation of pharmacokinetic parameters, such as AUC (area under the plasma concentration vs. time curve), Vss (volume of distribution under steady-state conditions), Cmax (highest test compound concentration observed in plasma following administration), t1/2 (half-life) and CL (total clearance of the test compound from the plasma). For the calculation of the blood clearance, the blood to plasma partitioning is determined by incubation of the test compound in blood of rats. After separation of the plasma by centrifugation, the concentration in the plasma is determined by an LC-MS/MS method. Under the assumption that the test compound is completely absorbed, the theoretically maximum achievable bioavailability Fmax,calc is calculated by the equation Fmax,calc=[1−CLblood/Qh]*100, wherein CLblood is the total blood clearance and Qh is the hepatic blood flow in rat of 4.2 L per h per kg.

Recombinant human c-Met protein, sequence (P08581 25-1390): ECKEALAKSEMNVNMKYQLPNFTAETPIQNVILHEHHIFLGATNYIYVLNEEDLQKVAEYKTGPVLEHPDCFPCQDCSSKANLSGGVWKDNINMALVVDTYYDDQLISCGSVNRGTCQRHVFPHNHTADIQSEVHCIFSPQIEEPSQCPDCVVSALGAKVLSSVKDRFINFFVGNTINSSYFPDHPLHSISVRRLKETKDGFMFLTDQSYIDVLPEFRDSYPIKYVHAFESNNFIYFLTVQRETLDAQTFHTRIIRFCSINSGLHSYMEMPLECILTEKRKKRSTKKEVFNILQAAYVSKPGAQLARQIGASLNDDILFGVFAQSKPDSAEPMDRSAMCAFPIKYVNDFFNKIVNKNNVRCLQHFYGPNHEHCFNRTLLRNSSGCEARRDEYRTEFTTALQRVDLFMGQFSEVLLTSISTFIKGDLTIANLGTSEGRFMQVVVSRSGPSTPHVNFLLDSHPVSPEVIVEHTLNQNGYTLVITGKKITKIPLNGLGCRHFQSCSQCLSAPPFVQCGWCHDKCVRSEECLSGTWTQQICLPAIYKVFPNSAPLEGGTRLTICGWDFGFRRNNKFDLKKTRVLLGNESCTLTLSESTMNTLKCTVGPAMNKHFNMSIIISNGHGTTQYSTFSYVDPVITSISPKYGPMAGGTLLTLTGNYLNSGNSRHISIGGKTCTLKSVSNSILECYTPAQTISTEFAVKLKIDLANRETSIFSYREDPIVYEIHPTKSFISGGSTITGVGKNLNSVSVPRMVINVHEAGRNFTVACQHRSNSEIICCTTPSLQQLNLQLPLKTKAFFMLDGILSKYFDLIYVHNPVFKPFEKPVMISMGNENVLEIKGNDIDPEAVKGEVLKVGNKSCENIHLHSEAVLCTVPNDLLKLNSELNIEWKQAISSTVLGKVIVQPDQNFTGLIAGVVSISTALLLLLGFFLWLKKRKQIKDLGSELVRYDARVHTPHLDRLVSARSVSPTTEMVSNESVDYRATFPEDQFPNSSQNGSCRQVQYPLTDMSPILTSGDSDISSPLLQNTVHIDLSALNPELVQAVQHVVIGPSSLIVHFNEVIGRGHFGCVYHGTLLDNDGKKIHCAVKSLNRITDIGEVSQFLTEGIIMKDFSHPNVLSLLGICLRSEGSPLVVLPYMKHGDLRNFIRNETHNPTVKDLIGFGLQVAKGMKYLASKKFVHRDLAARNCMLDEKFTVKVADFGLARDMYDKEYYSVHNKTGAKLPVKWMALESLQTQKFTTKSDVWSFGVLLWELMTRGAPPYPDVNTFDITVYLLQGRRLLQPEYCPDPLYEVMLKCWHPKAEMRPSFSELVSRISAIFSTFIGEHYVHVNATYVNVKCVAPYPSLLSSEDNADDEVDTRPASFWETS

Row | Compound | IC50 [1] | in vivo PK, rat i.v. CLblood [2] | in vivo PK, rat i.v. Fmax, calc [2]
1 | CC1=C(C#N)C(c2ccc3[nH]nc(C)c3c2)C(C#N)=C(C(F)F)N1 (single isomer, unassigned) [Example 3, 2-(Difluoromethyl)-6-methyl-4-(3-methyl-1H-indazol-5-yl)-1,4-dihydropyridine-3,5-dicarbonitrile] | 6 nM | 52.3 mL/min/kg | 25%
2 | Cc1n[nH]c2cc(F)c(C3C(C#N)=C(C(F)F)NC(C(F)F)=C3C#N)cc12 [Example 14, 2,6-Bis(difluoromethyl)-4-(6-fluoro-3-methyl-1H-indazol-5-yl)-1,4-dihydropyridine-3,5-dicarbonitrile] | 26 nM | 4.67 mL/min/kg | 93%
3 | CC1=C(C#N)C(c2ccc3[nH]nc(C)c3c2)C(C#N)=C(C(F)(F)F)N1 (single isomer, unassigned) [Example 6] | 12 nM | 28 mL/min/kg | 60%
